Target: PI3Kδ (Homo sapiens (Human), UniProt O00329)
Assay type: biochemical
Details: PI3Kδ Alphascreen assay
Description: A PI3K Alphascreen® assay (PerkinElmer, Waltham, Mass.) was used to measure the activity of a panel of four phosphoinositide 3-kinases: PI3Kα, PI3Kβ, PI3Kγ, and PI3Kδ. Enzyme reaction buffer was prepared using sterile water (Baxter, Deerfield, Ill.) and 50 mM Tris HCl pH 7, 14 mM MgCl2, 2 mM sodium cholate, and 100 mM NaCl. 2 mM DTT was added fresh the day of the experiment. The Alphascreen buffer was made using sterile water and 10 mM Tris HCl pH 7.5, 150 mM NaCl, 0.10% Tween 20, and 30 mM EDTA. 1 mM DTT was added fresh the day of the experiment. Compound source plates used for this assay were 384-well Greiner clear polypropylene plates containing test compounds at 5 mM and diluted 1:2 over 22 concentrations. Columns 23 and 24 contained only DMSO as these wells comprised the positive and negative controls, respectively. Source plates were replicated by transferring 0.5 uL per well into 384-well Optiplates (PerkinElmer, Waltham, Mass.).
Each PI3K isoform was diluted in enzyme reaction buffer to 2× working stocks. PI3Kα was diluted to 1.6 nM, PI3Kβ was diluted to 0.8 nM, PI3Kγ was diluted to 15 nM, and PI3Kδ was diluted to 1.6 nM. PI(4,5)P2 (Echelon Biosciences, Salt Lake City, Utah) was diluted to 10 μM and ATP was diluted to 20 μM. This 2× stock was used in the assays for PI3Kα and PI3Kβ. For assay of PI3Kγ and PI3Kδ, PI(4,5)P2 was diluted to 10 μM and ATP was diluted to 8 μM to prepare a similar 2× working stock. Alphascreen reaction solutions were made using beads from the anti-GST Alphascreen kit (PerkinElmer, Waltham, Mass.). Two 4× working stocks of the Alphascreen reagents were made in Alphascreen reaction buffer. In one stock, biotinylated-IP4 (Echelon Biosciences, Salt Lake City, Utah) was diluted to 40 nM and streptavadin-donor beads were diluted to 80 μg/mL. In the second stock, PIP3-binding protein (Echelon Biosciences, Salt Lake City, Utah) was diluted to 40 nM and anti-GST-acceptor beads were diluted to 80 μg/mL.
Using a 384-well Multidrop (Titertek, Huntsville, Ala.), 10 μL/well of 2× enzyme stock was added to columns 1-24 of the assay plates for each isoform. 10 μL/well of the appropriate substrate 2× stock (containing 20 μM ATP for the PI3Kα and β assays and containing 8 μM ATP for the PI3Kγ and δ assays) was then added to Columns 1-24 of all plates. Plates were then incubated at room temperature for 20 minutes. In the dark, 10 μL/well of the donor bead solution was added to columns 1-24 of the plates to quench the enzyme reaction. The plates were incubated at room temperature for 30 minutes. Still in the dark, 10 μL/well of the acceptor bead solution was added to columns 1-24 of the plates. The plates were then incubated in the dark for 1.5 hours. The plates were read on an Envision multimode Plate Reader (PerkinElmer, Waltham, Mass.) using a 680 nm excitation filter and a 520-620 nm emission filter.

Chain of PI3Kδ (O00329 whole entry): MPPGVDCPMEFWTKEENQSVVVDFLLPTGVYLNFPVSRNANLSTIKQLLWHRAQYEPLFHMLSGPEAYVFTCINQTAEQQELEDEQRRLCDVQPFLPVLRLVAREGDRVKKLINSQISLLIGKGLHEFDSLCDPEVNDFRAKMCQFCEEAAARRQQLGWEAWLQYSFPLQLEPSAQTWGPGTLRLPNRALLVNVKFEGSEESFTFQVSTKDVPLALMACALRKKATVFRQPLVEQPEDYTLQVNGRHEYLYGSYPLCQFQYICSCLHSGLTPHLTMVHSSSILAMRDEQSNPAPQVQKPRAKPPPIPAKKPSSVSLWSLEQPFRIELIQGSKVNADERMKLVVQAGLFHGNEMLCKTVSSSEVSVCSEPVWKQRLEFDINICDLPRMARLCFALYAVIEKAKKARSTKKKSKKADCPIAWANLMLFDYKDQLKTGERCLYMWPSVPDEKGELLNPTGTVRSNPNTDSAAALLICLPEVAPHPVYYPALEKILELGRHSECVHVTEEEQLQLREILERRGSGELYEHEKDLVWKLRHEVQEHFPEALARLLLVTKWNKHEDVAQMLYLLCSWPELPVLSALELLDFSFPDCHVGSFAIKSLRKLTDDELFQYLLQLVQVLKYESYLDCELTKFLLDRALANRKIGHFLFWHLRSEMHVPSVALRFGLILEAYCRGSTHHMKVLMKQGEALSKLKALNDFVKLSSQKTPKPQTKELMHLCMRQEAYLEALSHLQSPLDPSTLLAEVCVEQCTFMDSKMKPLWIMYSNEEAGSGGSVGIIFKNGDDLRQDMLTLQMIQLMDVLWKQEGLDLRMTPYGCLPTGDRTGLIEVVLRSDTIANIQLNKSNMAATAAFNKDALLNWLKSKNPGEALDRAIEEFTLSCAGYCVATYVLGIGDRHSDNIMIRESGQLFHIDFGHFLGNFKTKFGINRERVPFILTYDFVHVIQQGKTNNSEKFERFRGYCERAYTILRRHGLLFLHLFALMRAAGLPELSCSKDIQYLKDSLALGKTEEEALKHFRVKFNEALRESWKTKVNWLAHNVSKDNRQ
Chain of PI3Kδ (P27986 whole entry partner): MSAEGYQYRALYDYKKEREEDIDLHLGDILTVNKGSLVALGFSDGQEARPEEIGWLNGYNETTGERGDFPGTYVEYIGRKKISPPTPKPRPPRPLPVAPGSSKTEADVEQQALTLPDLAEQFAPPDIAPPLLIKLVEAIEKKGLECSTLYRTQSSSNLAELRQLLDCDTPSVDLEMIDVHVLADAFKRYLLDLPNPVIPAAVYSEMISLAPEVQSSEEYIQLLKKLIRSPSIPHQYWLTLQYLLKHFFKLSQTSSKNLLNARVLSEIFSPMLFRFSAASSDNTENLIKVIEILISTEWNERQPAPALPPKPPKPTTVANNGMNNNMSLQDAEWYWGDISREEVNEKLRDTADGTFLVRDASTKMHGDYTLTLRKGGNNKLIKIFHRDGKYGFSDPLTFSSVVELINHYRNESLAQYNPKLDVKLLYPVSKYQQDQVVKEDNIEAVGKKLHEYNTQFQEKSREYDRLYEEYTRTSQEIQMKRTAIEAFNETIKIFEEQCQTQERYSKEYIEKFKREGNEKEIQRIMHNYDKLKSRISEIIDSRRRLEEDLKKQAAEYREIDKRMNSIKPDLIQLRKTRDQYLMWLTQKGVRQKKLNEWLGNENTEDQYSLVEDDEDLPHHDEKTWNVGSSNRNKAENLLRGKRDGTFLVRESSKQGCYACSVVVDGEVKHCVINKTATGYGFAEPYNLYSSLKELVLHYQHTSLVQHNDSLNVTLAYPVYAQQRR

Compound | Ki [nM]
Cc1c(Cc2cccc(C#N)c2)nc2cc(F)cc(F)c2c1N1CC(C)(C)c2ncc(N3CCOCC3)cc21 [3-((4-(3,3-dimethyl-6-(4-morpholinyl)-2,3-dihydro-1H-pyrrolo[3,2-b]pyridin-1-yl)-5,7-difluoro-3-methyl-2-quinolinyl)methyl)benzonitrile] | 2.68
Cc1cc(-c2ccc3c(c2)N(c2c(C)c(-c4ccccn4)nc4cc(F)ccc24)CC3(C)C)nc(N)n1 [4-(1-(7-fluoro-3-methyl-2-(2-pyridinyl)-4-quinolinyl)-3,3-dimethyl-2,3-dihydro-1H-indol-6-yl)-6-methyl-2-pyrimidinamine] | 449
Cc1c(-c2ccccn2)nc2cc(F)ccc2c1N1CC(C)(C)c2ncc(-c3cn[nH]c3)cc21 [4-(3,3-dimethyl-6-(1H-pyrazol-4-yl)-2,3-dihydro-1H-pyrrolo[3,2-b]pyridin-1-yl)-7-fluoro-3-methyl-2-(2-pyridinyl)quinoline] | 95.2
Cc1nc2c(C)cccc2c(N2CC(C)(C)c3ccc(N4CCOCC4)cc32)c1C [4-(3,3-dimethyl-6-(4-morpholinyl)-2,3-dihydro-1H-indol-1-yl)-2,3,8-trimethylquinoline] | 44
Cc1nc2c(C(F)(F)F)cccc2c(N2CC(C)(C)c3ccc(N4CCOCC4)cc32)c1C [4-(3,3-dimethyl-6-(4-morpholinyl)-2,3-dihydro-1H-indol-1-yl)-2,3-dimethyl-8-(trifluoromethyl)quinoline] | 516
Cc1cnc2ccccc2c1N1CC(C)(C)c2ccc(N3CCOCC3)cc21 [4-(3,3-dimethyl-6-(4-morpholinyl)-2,3-dihydro-1H-indol-1-yl)-3-methylquinoline] | 654
Cc1c(N2CCCCC2)nc2cc(F)cc(F)c2c1N1CC(C)(C)c2ccc(N3CCOCC3)cc21 [4-(3,3-dimethyl-6-(4-morpholinyl)-2,3-dihydro-1H-indol-1-yl)-5,7-difluoro-3-methyl-2-(1-piperidinyl)quinoline] | 73.7
COc1cc(OC)c2nc(C)c(C)c(N3CC(C)(C)c4ccc(N5CCOCC5)cc43)c2c1 [4-(3,3-dimethyl-6-(4-morpholinyl)-2,3-dihydro-1H-indol-1-yl)-6,8-dimethoxy-2,3-dimethylquinoline] | 3970
Cc1c(-c2ccccc2S(C)(=O)=O)nc2cc(F)ccc2c1N1CC(C)(C)c2ccc(N3CCOCC3)cc21 [4-(3,3-dimethyl-6-(4-morpholinyl)-2,3-dihydro-1H-indol-1-yl)-7-fluoro-3-methyl-2-(2-(methylsulfonyl)phenyl)quinoline] | 4.43

Results, then the compound that gave them:

Ki [nM] | Compound
154 | Cc1c(-c2cccc(C#N)c2)nc2cc(F)ccc2c1N1CC(C)(C)c2ccc(N3CCOCC3)cc21 [3-(4-(3,3-dimethyl-6-(4-morpholinyl)-2,3-dihydro-1H-indol-1-yl)-7-fluoro-3-methyl-2-quinolinyl)benzonitrile]
362 | Cc1nc2ccccc2c(N2CC(C)(C)c3ccc(N4CCOCC4)cc32)c1C [4-(3,3-dimethyl-6-(4-morpholinyl)-2,3-dihydro-1H-indol-1-yl)-2,3-dimethylquinoline]
47 | Cc1c(-c2ccccc2F)nc2ccccc2c1N1CC(C)(C)c2ccc(N3CCOCC3)cc21 [4-(3,3-dimethyl-6-(4-morpholinyl)-2,3-dihydro-1H-indol-1-yl)-2-(2-fluorophenyl)-3-methylquinoline]
85.4 | Cc1c(-c2ccccc2)nc2ccccc2c1N1CC(C)(C)c2ccc(N3CCOCC3)cc21 [4-(3,3-dimethyl-6-(4-morpholinyl)-2,3-dihydro-1H-indol-1-yl)-3-methyl-2-phenylquinoline]
156 | Cc1c(-c2ccccn2)nc2cccc(F)c2c1N1CC(C)(C)c2ccc(N3CCOCC3)cc21 [4-(3,3-dimethyl-6-(4-morpholinyl)-2,3-dihydro-1H-indol-1-yl)-5-fluoro-3-methyl-2-(2-pyridinyl)quinoline]
197 | Cc1c(-c2ccccc2F)nc2cc(F)ccc2c1N1CC(C)(C)c2ccc(N3CCOCC3)cc21 [4-(3,3-dimethyl-6-(4-morpholinyl)-2,3-dihydro-1H-indol-1-yl)-7-fluoro-2-(2-fluorophenyl)-3-methylquinoline]

— patent US8765940B2 (priority 2009, dated 2014)
